Experimental data as given in patent US12071436B2, “Anti-parasitic compounds and uses thereof” (Memorial Sloan-Kettering Cancer Center, priority 2016, dated 2024).
Read-outs that look alike come from different tables or passages of the source.

Legend:
[1] = tested on: Trypanosoma cruzi parasites; assay: Trypanosoma cruzi in vitro IC50 (structure-activity analyses); format: cell-based; conditions: infection with Trypanosoma cruzi parasites for 72 hours and treatment with the compound for 72 hours
Description: Select compounds described herein were evaluated for structure-activity analyses in vitro.

Cytotoxicity (Table 1) = format: cell-based
[2] = Hepatic microsomal stability, 1 mg/mL hepatic microsomes; format: in vitro ADME; conditions: C57BL/6, mouse, liver microsomes, pH 7.4, 1 μM compound, NADPH, read-out: microsomal stability (t1/2, mouse): 1 mg/mL hepatic microsomes
Description: To evaluate the hepatic microsomal stability of selected compounds, 1 μM of each selected compound was incubated with 1 mg/mL hepatic microsomes in 100 mM KPi, pH 7.4. The microsomes were obtained from C57BL/6 mice. The reaction was initiated by adding NADPH (1 mM final concentration). Aliquots were removed at 0, 5, 10, 20, 40, and 60 minutes and added to acetonitrile (5× v:v) to stop the reaction and precipitate the protein. NADPH dependence of the reaction is evaluated with —NADPH samples. At the end of the assay, the samples were centrifuged through a Millipore Multiscreen Solvinter 0.45 micron low binding PTFE hydrophilic filter plate and analyzed by LC-MS/MS. Data was log transformed and represented as half-life.

[3] = Parallel artificial membrane permeability assay (PAMPA), commercial kit; format: in vitro ADME; conditions: PBS, room temperature, read-out: Parallel artificial membrane permeability assay (PAMPA) Permeability (log Pe [cm/s]) (converted)
Description: To evaluate the Parallel Artificial Membrane Permeability Assay (PAMPA) of selected compounds, an assessment of permeability was done using a commercial PAMPA kit. Selected compounds were evaluated over a range of concentrations by 300 μl of PBS containing the compound to the bottom donor plate. Selected compounds were from DMSO stocks and the final DMSO concentration in the donor wells was one percent. 200 μl of blank PBS was added to the top receiver plate. The plates were allowed to incubate at room temperature. After 5 hours, aliquots were taken from the donor and receiver plates and the concentration of drug was determined. Compound permeability was calculated using the equation [formula] where Pe is expressed in units of cm/s, CA(t) is drug concentration in the acceptor at time t, VD is donor well volume, VA is acceptor well volume, A is the area of the filter (0.3 cm^2), t is time in seconds, and Ceq=[CD(t)*VD+CA(t)*VA]/(VD+VA).

[4] = Caco-2 bi-directional permeability; format: in vitro ADME; conditions: human, Caco-2, pH 7.4
Description: To evaluate the bi-directional Caco-2 permeability of compounds 21 and 37, Caco-2 cells were grown in Dulbecco's Modified Eagle Medium (DMEM) (20% Fetal bovine serum (FBS)) until 85-90% confluence. After attaining required confluence, cells were trypsinized and seeded into 24 well millcell plates at a density of 0.6×10^5 cells/insert. The plates were maintained for 21 days at 37° C. in CO2 incubator with change of medium every alternative day. Monolayer integrity was monitored by measuring Trans-epithelial electrical resistance (TEER) from day 15. Caco-2 cell monolayer was washed twice with HBSS and incubated for 30 min in CO2 incubator. TEER values were measured and wells showing TEER values above 230 ohms·cm2 were taken for experiments. Bi-directional permeability study was initiated by adding appropriate volume of HBSS containing the test compounds or probe P-gp substrate loperamide to either the apical (A-B transport) or basal side (B-A transport) of the monolayer. At selected time points (0, 15, 30, 60 and 90 mins) an aliquot of 50 μL was collected from the receiver compartment for determination of test compound concentrations. The volume withdrawn was replaced immediately with plain HBSS buffer (pH 7.4). TEER was measure at the end of the experiment to test the post experiment monolayer integrity. […]

[5] = Plasma protein binding by equilibrium dialysis; format: in vitro ADME; conditions: mouse, 37° C.
Description: To evaluate the plasma protein binding of selected compounds, equilibrium dialysis was used. All samples of the selected compounds were tested in triplicate using the RED Rapid Equilibrium Dialysis Device (Thermo Scientific). The initial drug concentration in the plasma chamber was 5 μM and phosphate buffered saline was added to the receiver chamber. The plate was covered and allowed to shake in a 37° C. incubator for 6 hours. 25 μl was sampled from the plasma and PBS chambers which were then diluted with either blank PBS or plasma to achieve a 1:1 ratio or plasma:PBS for all samples. The concentration of drug in the plasma and PBS chambers were determined by LC-MS/MS. The fraction bound was calculated as ([plasma]−[PBS])/[plasma].

[6] = Cytotoxicity screening in MRC5 (CellTiter Glo, fluorescence microscopy); format: cell-based; conditions: human, MRC5 cells
Description: To evaluate the cytotoxicity of selected compounds, cell viability assays (CellTiter Glo) were conducted. Each compound (compound 21 or compound 37) was plated in triplicate starting at their respective stock concentration. They were serially diluted column-wise for ten 3× dilutions using DMSO as the diluent. Staurosporine was used as positive control for DRC (dose response curve), and was plated starting at 1.25 mM. This plate was used as a source plate to make the assay plates by transferring 0.1 μl into 25 μl assay volume to reach the right working concentration for each compound. HepG2 and MRC5 were plated at a density of 1500 cells/25 μl in well in the assay plate and allowed to settle overnight. 0.1 μL of compounds was then transferred from the source plate, into the cell assay plates. The cells were left to incubate with the compounds for 48 hours, after which, 25 μL of Promega Cell Titer-Glo was added to each well, and allowed to incubate at room temperature with shaking for 20 minutes. RLU's (Relative Light Units) for each well were then recorded on a BioTek Synergy NEO. Fluorescence microscopy was also used to evaluate the cytotoxicity of selected compounds. Cells were plated at a density of 1500 cells/25 μl in well in a 384 wells plate the day before incubation with the drugs. The following day, 0.1 μl of the source plate are added to the assay plate. Then, 25 μl of a fluorophores mixture containing Hoechst 33342, Syto17 diluted in Eagle's Minimum Essential Medium (EMEM) was added to each well. Plates are read after 48 hours of incubation in the ImageXpress instrument (Molecular Devices) using the appropriate filters.

[7] = read-out: MRC5 IC50, Cell Count
[8] = read-out: MRC5 IC50, Cellular ATP
[9] = read-out: MRC5 IC50, Membrane Integrity

Structure (SMILES)	IC50 [1] [µM]	Cytotoxicity (Cytotoxicity (Table 1)) [µM]	half-life at 1 μM [2] [min]	Papp at 5 h [3] [×10⁻⁶ cm/s]	efflux ratio at 90 min [4]	fraction unbound at 6 h, 5 μM [5]	IC50 at 48 h [6, 7] [µM]	IC50 at 48 h [6, 8] [µM]	IC50 at 48 h [6, 9] [µM]
CN(C)CC#Cc1cccc(-c2nc(C(=O)NCc3ccc4c(c3)OCO4)cc3c2[C@@H](CCO)N([S@+]([O-])C(C)(C)C)C3)c1 [compound 21, (R)-N-(Benzo[d][1,3]dioxol-5-ylmethyl)-2-((R)-tert-butylsulfinyl)-4-(3-(3-(dimethyl-amino)prop-1-yn-1-yl)phenyl)-3-(2-hydroxyethyl)-2,3-dihydro-1H-pyrrolo[3,4-c]pyridine-6-carboxamide]	0.054	>10	3.9	0.055	24.9	0.045	63.7	44.7	24.4
CN(C)CC#Cc1cccc(-c2nc(C(=O)N[C@@H]3CCN(Cc4ccccc4)C3)cc3c2[C@@H](CCO)N([S@+]([O-])C(C)(C)C)C3)c1 [compound 37, (R)-N-((R)-1-Benzylpyrrolidin-3-yl)-2-((R)-tert-butylsulfinyl)-4-(3-(3-(dimethylamino)prop-1-yn-1-yl)phenyl)-3-(2-hydroxyethyl)-2,3-dihydro-1H-pyrrolo[3,4-c]pyridine-6-carboxamide]	0.048	>10	1.3	5.75	13.2	0.081	64.2	54.1	13.4
